Measurements published in ChEMBL document CHEMBL1201862, “PubChem BioAssay data set” (2004).
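Test compounds were applied to cells in 96-well plates for 48 hours at 5 doses. Here, GI50 denotes the concentration required for 50% inhibition of growth.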 Activity calls are given as the source filed them. Rule as the data show it: active = GI50 up to about 1.1 µM and inactive = higher. Where a SMILES comes first, the peptide text is derived from it. The star is where a group is joined. Cbz = O=C(OCc1ccccc1)*; Boc = CC(C)(C)OC(=O)*; OSu = O=C1CCC(=O)N1O*; Bn = c1ccc(C*)cc1

Assays:
Experiment in all cases: inhibition of tumour cell growth, NCI panel, 48 h
EKVX = test system: EKVX
SR = test system: SR
OVCAR-8 = test system: OVCAR-8
Hs-578T = test system: Hs-578T
COLO 205 = test system: COLO 205
OVCAR-5 = test system: OVCAR-5
HCT-116 = test system: HCT-116
UACC-62 = test system: UACC-62
RXF 393 = test system: RXF 393
NCI-H460 = test system: NCI-H460
NCI-H226 = test system: NCI-H226
LOX IMVI = test system: LOX IMVI
A498 = test system: A498
KM12 = test system: KM12
BT-549 = test system: BT-549
M14 = test system: M14
ACHN = test system: ACHN
NCI-H522 = test system: NCI-H522
TK-10 = test system: TK-10
SF-295 = test system: SF-295

SMILES: NC(=O)c1cc2ccccc2o/c1=N/c1ccccc1
- GI50 (EKVX): > 100 µM (inactive)
- GI50 (SR): > 100 µM (inactive)
- GI50 (OVCAR-8): > 100 µM (inactive)
- GI50 (Hs-578T): > 100 µM (inactive)
- GI50 (COLO 205): > 100 µM (inactive)
- GI50 (OVCAR-5): > 100 µM (inactive)
- GI50 (HCT-116): > 100 µM (inactive)
- GI50 (UACC-62): > 100 µM (inactive)
- GI50 (RXF 393): > 100 µM (inactive)
- GI50 (NCI-H460): > 100 µM (inactive)
- GI50 (NCI-H226): > 100 µM (inactive)
- GI50 (LOX IMVI): > 100 µM (inactive)
- GI50 (A498): > 100 µM (inactive)
- GI50 (KM12): > 100 µM (inactive)
- GI50 (BT-549): > 100 µM (inactive)
- GI50 (M14): > 100 µM (inactive)
- GI50 (ACHN): > 100 µM (inactive)

SMILES: COc1cc(Br)cc2cc(-c3cn4c(n3)sc3ccccc34)c(=O)oc12
- GI50 (EKVX): 14.5 µM (inactive)
- GI50 (SR): 21.6 µM (inactive)
- GI50 (OVCAR-8): 28.6 µM (inactive)
- GI50 (NCI-H522): 14.5 µM (inactive)
- GI50 (TK-10): 45.4 µM (inactive)
- GI50 (Hs-578T): 15.6 µM (inactive)
- GI50 (COLO 205): 38.7 µM (inactive)
- GI50 (OVCAR-5): 39 µM (inactive)
- GI50 (HCT-116): 21.3 µM (inactive)
- GI50 (UACC-62): 22.6 µM (inactive)
- GI50 (SF-295): 19.8 µM (inactive)
- GI50 (NCI-H460): 33.7 µM (inactive)
- GI50 (LOX IMVI): 18.4 µM (inactive)
- GI50 (A498): 21.2 µM (inactive)
- GI50 (KM12): 30.4 µM (inactive)
- GI50 (BT-549): 24.3 µM (inactive)
- GI50 (M14): 24.4 µM (inactive)
- GI50 (ACHN): 32 µM (inactive)

SMILES: NC(=O)NC(=O)CCC(NS(=O)(=O)c1ccccc1)C(=O)NC(N)=O (stereo not drawn)
- GI50 (EKVX): > 100 µM (inactive)
- GI50 (SR): > 100 µM (inactive)
- GI50 (OVCAR-8): > 100 µM (inactive)
- GI50 (NCI-H522): > 100 µM (inactive)
- GI50 (TK-10): > 100 µM (inactive)
- GI50 (Hs-578T): > 100 µM (inactive)
- GI50 (COLO 205): > 100 µM (inactive)
- GI50 (OVCAR-5): > 100 µM (inactive)
- GI50 (HCT-116): > 100 µM (inactive)
- GI50 (UACC-62): > 100 µM (inactive)
- GI50 (SF-295): > 100 µM (inactive)
- GI50 (NCI-H460): > 100 µM (inactive)
- GI50 (NCI-H226): > 100 µM (inactive)
- GI50 (LOX IMVI): > 100 µM (inactive)
- GI50 (A498): > 100 µM (inactive)
- GI50 (KM12): > 100 µM (inactive)
- GI50 (BT-549): > 100 µM (inactive)
- GI50 (M14): > 100 µM (inactive)
- GI50 (ACHN): > 100 µM (inactive)

SMILES: Nc1ccc2c(c1)Nc1c3ccccc3nc3cccc-2c13
- GI50 (EKVX): 1.69 µM (inactive)
- GI50 (SR): 0.281 µM (active)
- GI50 (NCI-H522): 1.55 µM (inactive)
- GI50 (TK-10): 2.13 µM (inactive)
- GI50 (Hs-578T): 2.03 µM (inactive)
- GI50 (COLO 205): 1.34 µM (inactive)
- GI50 (OVCAR-5): 1.77 µM (inactive)
- GI50 (HCT-116): 1.48 µM (inactive)
- GI50 (UACC-62): 1.82 µM (inactive)
- GI50 (SF-295): 1.29 µM (inactive)
- GI50 (RXF 393): 1.64 µM (inactive)
- GI50 (NCI-H460): 1.02 µM (active)
- GI50 (NCI-H226): 1.62 µM (inactive)
- GI50 (LOX IMVI): 1.3 µM (inactive)
- GI50 (A498): 1.79 µM (inactive)
- GI50 (KM12): 1.32 µM (inactive)
- GI50 (BT-549): 3.6 µM (inactive)
- GI50 (M14): 2.12 µM (inactive)
- GI50 (ACHN): 1.43 µM (inactive)

SMILES: CC(C)(C)OC(=O)NC(Cc1ccc(OCc2ccccc2)cc1)C(=O)NC(CCCCNC(=O)OCc1ccccc1)C(=O)ON1C(=O)CCC1=O (stereo not drawn) (Boc-Tyr(Bn)-Lys(Cbz)-OSu; configuration not given here)
- GI50 (EKVX): 42.6 µM (inactive)
- GI50 (SR): 25.4 µM (inactive)
- GI50 (OVCAR-8): 20.8 µM (inactive)
- GI50 (TK-10): 29.6 µM (inactive)
- GI50 (Hs-578T): 20.3 µM (inactive)
- GI50 (COLO 205): 27 µM (inactive)
- GI50 (OVCAR-5): 31.3 µM (inactive)
- GI50 (HCT-116): 19.9 µM (inactive)
- GI50 (UACC-62): 18.2 µM (inactive)
- GI50 (RXF 393): 16.9 µM (inactive)
- GI50 (NCI-H460): 21.7 µM (inactive)
- GI50 (NCI-H226): 29.2 µM (inactive)
- GI50 (A498): 48.3 µM (inactive)
- GI50 (KM12): 23.9 µM (inactive)
- GI50 (BT-549): 21.6 µM (inactive)
- GI50 (M14): 19.4 µM (inactive)
- GI50 (ACHN): 20.7 µM (inactive)

SMILES: O[C@H]1[C@H](O)[C@@H](O)[C@H](O)[C@@H](O)[C@H]1O [INOSITOL]
- GI50 (SR): 56.6 µM (inactive)
- GI50 (OVCAR-8): > 1000 µM (inactive)
- GI50 (TK-10): > 1000 µM (inactive)
- GI50 (Hs-578T): > 1000 µM (inactive)
- GI50 (COLO 205): > 1000 µM (inactive)
- GI50 (OVCAR-5): > 1000 µM (inactive)
- GI50 (HCT-116): > 1000 µM (inactive)
- GI50 (UACC-62): > 1000 µM (inactive)
- GI50 (RXF 393): > 1000 µM (inactive)
- GI50 (NCI-H460): > 1000 µM (inactive)
- GI50 (NCI-H226): > 1000 µM (inactive)
- GI50 (LOX IMVI): > 1000 µM (inactive)
- GI50 (A498): > 1000 µM (inactive)
- GI50 (BT-549): > 1000 µM (inactive)
- GI50 (M14): > 1000 µM (inactive)
- GI50 (ACHN): > 1000 µM (inactive)

SMILES: OC[C@H]1O[C@@H](Oc2cc(O)cc(/C=C/c3ccc(O)cc3)c2)[C@H](O)[C@@H](O)[C@@H]1O [PICEID]
- GI50 (EKVX): > 100 µM (inactive)
- GI50 (SR): > 100 µM (inactive)
- GI50 (OVCAR-8): > 100 µM (inactive)
- GI50 (NCI-H522): > 100 µM (inactive)
- GI50 (TK-10): > 100 µM (inactive)
- GI50 (Hs-578T): > 100 µM (inactive)
- GI50 (OVCAR-5): > 100 µM (inactive)
- GI50 (HCT-116): > 100 µM (inactive)
- GI50 (UACC-62): > 100 µM (inactive)
- GI50 (SF-295): > 100 µM (inactive)
- GI50 (RXF 393): > 100 µM (inactive)
- GI50 (NCI-H460): > 100 µM (inactive)
- GI50 (NCI-H226): > 100 µM (inactive)
- GI50 (LOX IMVI): > 100 µM (inactive)
- GI50 (A498): > 100 µM (inactive)
- GI50 (KM12): > 100 µM (inactive)
- GI50 (BT-549): > 100 µM (inactive)
- GI50 (ACHN): > 100 µM (inactive)

SMILES: O=C(/C=C/c1ccc(Oc2cc(C(=O)/C=C/c3ccc(O)cc3)c(O)cc2O)cc1)c1ccc(O)cc1O [RHUSCHALCONE II]
- GI50 (EKVX): 13.2 µM (inactive)
- GI50 (SR): 3.35 µM (inactive)
- GI50 (OVCAR-8): 2.64 µM (inactive)
- GI50 (NCI-H522): 4.82 µM (inactive)
- GI50 (TK-10): 3.07 µM (inactive)
- GI50 (Hs-578T): 7.28 µM (inactive)
- GI50 (COLO 205): 2.61 µM (inactive)
- GI50 (OVCAR-5): 5.27 µM (inactive)
- GI50 (HCT-116): 2.25 µM (inactive)
- GI50 (UACC-62): 4.62 µM (inactive)
- GI50 (SF-295): 5.96 µM (inactive)
- GI50 (RXF 393): 4.97 µM (inactive)
- GI50 (NCI-H460): 7.89 µM (inactive)
- GI50 (LOX IMVI): 5.47 µM (inactive)
- GI50 (A498): 2.65 µM (inactive)
- GI50 (KM12): 2.15 µM (inactive)
- GI50 (BT-549): 9.84 µM (inactive)
- GI50 (M14): 10.3 µM (inactive)
- GI50 (ACHN): 9.29 µM (inactive)
